Assay results from patent US20240390340A1 (INCYTE CORPORATION, priority 2023, published 2024).

Assays:
[1] = biological target: KRAS G12V (Homo sapiens, UniProt P01116, G12V); experiment: GDP-GTP exchange assay (bodipy-GDP/GppNHp, SOS1), KRAS G12V; type: biochemical; details: KRAS G12V mutant; value for the most potent isomer quoted for certain compounds; read-out: G12V (KRAS G12V exchange assay IC50)
Description: (§1) The inhibitor potency of the exemplified compounds was determined in a fluorescence based guanine nucleotide exchange assay, which measures the exchange of bodipy-GDP (fluorescently labeled GOP) for GppNHp (Non-hydrolyzable GTP analog) to generate the active state of KRAS in the presence of SOS1 (guanine nucleotide exchange factor). Inhibitors were serially diluted in DMSO and a volume of 0.1 μL was transferred to the wells of a black low volume 384-well plate. 5 μL/well volume of bodipy-loaded KRAS G12D diluted to 2.5 nM in assay buffer (25 mM Hepes pH 7.5, 50 mM NaCl, 10 mM MgCl2 and 0.01% Brij-35) was added to the plate and pre-incubated with inhibitor for 4 h at r.t. Appropriate controls (enzyme with no inhibitor or with a G12D inhibitor) were included on the plate. The exchange was initiated by the addition of a 5 μL/well volume containing 1 mM GppNHp and 300 nM SOS1 in assay buffer. The 10 μL/well reaction concentration of the bodipy-loaded KRAS G12D, GppNHp, and SOS1 were 2.5 nM, 500 μM, and 150 nM, respectively. The reaction plates were incubated at r.t. for 2 h, a time estimated for complete GDP-GTP exchange in the absence of inhibitor. For the KRAS G12V mutant, similar guanine nucleotide exchange assays were used with 2.5 nM as final concentration for the bodipy loaded KRAS proteins and 3 h incubation after adding GppNHp-SOS1 mixture. A cyclic peptide described to selectively bind G12D mutant (Sakamoto et al., BBRC 484.3 (2017), 605-611) or internal compounds with confirmed binding were used as positive controls in the assay plates. Fluorescence intensities were measured on a PheraStar plate reader instrument (BMG Labtech) with excitation at 485 nm and emission at 520 nm.
(§2) Either GraphPad prism or Genedata Screener SmartFit was used to analyze the data. The IC50 values were derived by fitting the data to a four parameter logistic equation producing a sigmoidal dose-response curve with a variable Hill coefficient.
(§3) The symbol “†” indicates IC50≤100 nM, “††” indicates IC50>100 nM but ≤1 μM; and “†††” indicates IC50 is >1 μM but ≤5 μM, “††††” indicates IC50 is >5 μM but ≤10 μM. “NA” indicates IC50 not available.

[2] = biological target: KRAS G12D (Homo sapiens, UniProt P01116, G12D); experiment: GDP-GTP exchange assay (bodipy-GDP/GppNHp, SOS1), KRAS G12D; type: biochemical; details: bodipy-loaded KRAS G12D 2.5 nM, 4 h pre-incubation; value for the most potent isomer quoted for certain compounds; read-out: G12D (KRAS G12D exchange assay IC50)
Description: as §1, §2, §3

KRAS G12V, sequence (P01116 1-188 isoform P01116-2 G12V): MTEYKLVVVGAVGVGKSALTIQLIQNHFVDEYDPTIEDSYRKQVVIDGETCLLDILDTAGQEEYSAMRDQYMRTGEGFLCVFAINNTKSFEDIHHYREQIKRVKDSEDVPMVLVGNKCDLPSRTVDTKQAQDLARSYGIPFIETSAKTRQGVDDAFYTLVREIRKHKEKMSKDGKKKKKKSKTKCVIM
KRAS G12D, sequence (P01116 1-188 isoform P01116-2 G12D): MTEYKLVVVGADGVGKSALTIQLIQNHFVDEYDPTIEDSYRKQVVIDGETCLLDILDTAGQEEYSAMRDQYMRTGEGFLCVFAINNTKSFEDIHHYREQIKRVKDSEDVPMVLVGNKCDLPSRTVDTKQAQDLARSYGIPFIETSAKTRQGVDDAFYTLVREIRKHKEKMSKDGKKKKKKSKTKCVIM

Row | SMILES | IC50 [1] [µM] | IC50 [2] [µM]
1 | Cc1nc2c(F)c(-c3cccc(Cl)c3Cl)c(CCC#N)cc2c2c1cc([C@H]1C[C@H](OCC3(C)CC(F)(F)C3)CN1C(=O)C1CC1)n2[C@H]1[C@H]2CN[C@@H]1C2 [Example 412] | ≤ 0.1 | ≤ 0.1
2 | CC(O)c1nc2c(F)c(-c3cccc(Cl)c3Cl)c(CCC#N)cc2c2c1cc([C@H]1C[C@H](OCC3(C#N)CC3)CN1C(=O)C1CC1)n2[C@H]1[C@H]2CN[C@@H]1C2 (some centres unmarked) [Example 404] | ≤ 0.1 | ≤ 0.1
3 | Cc1nc2c(F)c(-c3cccc(Cl)c3Cl)c(CCC#N)cc2c2c1cc([C@H]1C[C@H](Oc3ccnc(C#N)c3)CN1C(=O)C1CC1)n2[C@H]1[C@H]2CN[C@@H]1C2 [Example 198] | ≤ 0.1 | ≤ 0.1
4 | Cc1nc2c(F)c(-c3cccc(Cl)c3Cl)c(CCC#N)cc2c2c1cc([C@H]1C[C@H](n3cc(C(C)N4CCOC4=O)nn3)CN1C(=O)C1CC1)n2[C@H]1[C@H]2CN[C@@H]1C2 (some centres unmarked) [Example 325] | ≤ 0.1 | ≤ 0.1
5 | COc1ncc(F)cc1O[C@H]1C[C@H](c2cc3c(C)nc4c(F)c(-c5cccc(Cl)c5Cl)c(CCC#N)cc4c3n2[C@H]2[C@H]3CN[C@@H]2C3)N(C(=O)C2CC2)C1 [Example 447] | ≤ 0.1 | ≤ 0.1
6 | Cc1nc2c(F)c(-c3cccc(Cl)c3Cl)c(CCC#N)cc2c2c1cc([C@H]1C[C@H](OCc3cnn(C)n3)CN1C(=O)C1CC1)n2[C@H]1[C@H]2CN[C@@H]1C2 [Example 105] | ≤ 0.1 | ≤ 0.1
7 | Cc1nc2c(F)c(-c3cccc(Cl)c3Cl)c(CCC#N)cc2c2c1cc([C@H]1C[C@H](Oc3ccn(C(F)F)n3)CN1C(=O)C1CC1)n2[C@H]1[C@H]2CN[C@@H]1C2 [Example 340] | ≤ 0.1 | ≤ 0.1
8 | Cc1nc2c(F)c(-c3cccc(Cl)c3Cl)c(CCC#N)cc2c2c1cc([C@H]1C[C@H](Oc3cccc(C(C)C)c3)CN1C(=O)C1CC1)n2[C@H]1[C@H]2CN[C@@H]1C2 [Example 168] | ≤ 0.1 | 0.1 to 1
9 | Cc1nc2c(F)c(-c3cccc(Cl)c3Cl)c(CCC#N)cc2c2c1cc([C@H]1C[C@H](n3c(=O)n(C)c4ccccc43)CN1C(=O)C1CC1)n2[C@H]1[C@H]2CN[C@@H]1C2 [Example 321] | 0.1 to 1 | ≤ 0.1
10 | N#CCCc1cc2c(nc(-c3ccc(N4CCCC4=O)nc3)c3cc([C@H]4C[C@H](OCc5c(F)cccc5F)CN4C(=O)C4CC4)n([C@H]4[C@H]5CN[C@@H]4C5)c32)c(F)c1-c1cccc(Cl)c1Cl [Example 207] | ≤ 0.1 | 0.1 to 1
11 | Cc1ncn([C@H]2C[C@H](c3cc4c(C)nc5c(F)c(-c6cccc(Cl)c6Cl)c(CCC#N)cc5c4n3[C@H]3[C@H]4CN[C@@H]3C4)N(C(=O)C3CC3)C2)n1 [Example 277] | ≤ 0.1 | ≤ 0.1
12 | Cc1nc2c(F)c(-c3cccc(Cl)c3Cl)c(CCC#N)cc2c2c1cc([C@H]1C[C@H](Oc3cnn(C(F)F)c3)[C@@H](C)N1C(=O)C1CC1)n2[C@H]1[C@H]2CN[C@@H]1C2 [Example 214] | ≤ 0.1 | ≤ 0.1
13 | Cc1nc2c(F)c(-c3cccc(Cl)c3Cl)c(CCC#N)cc2c2c1cc([C@H]1C[C@H](Oc3ccc(C#N)nc3)CN1C(=O)C1CC1)n2[C@H]1[C@H]2CN[C@@H]1C2 [Example 290] | ≤ 0.1 | ≤ 0.1
14 | Cc1cc(CO[C@H]2C[C@H](c3cc4c(C)nc5c(F)c(-c6cccc(Cl)c6Cl)c(CCC#N)cc5c4n3[C@H]3[C@H]4CN[C@@H]3C4)N(C(=O)C3CC3)[C@H]2C)ns1 [Example 212] | ≤ 0.1 | ≤ 0.1
15 | Cc1nc2c(F)c(-c3cccc(Cl)c3Cl)c(CCC#N)cc2c2c1cc([C@H]1C[C@H](n3cc(C4CCCO4)nn3)CN1C(=O)C1CC1)n2[C@H]1C2CNC1C2 (some centres unmarked) [Example 180] | ≤ 0.1 | ≤ 0.1
16 | Cc1nc2c(F)c(-c3cccc(Cl)c3Cl)c(CCC#N)cc2c2c1cc([C@H]1C[C@H](OCc3ccc(C#N)cc3)CN1C(=O)C1CC1)n2[C@H]1[C@H]2CN[C@@H]1C2 [Example 152] | ≤ 0.1 | ≤ 0.1
17 | Cc1cc(C(C)O[C@H]2C[C@H](c3cc4c(C(C)O)nc5c(F)c(-c6cccc(Cl)c6Cl)c(CCC#N)cc5c4n3[C@H]3[C@H]4CN[C@@H]3C4)N(C(=O)C3CC3)C2)ns1 (some centres unmarked) [Example 335] | ≤ 0.1 | ≤ 0.1

Row | SMILES | IC50 [1] [µM] | IC50 [2] [µM]
18 | Cc1nc2c(F)c(-c3cccc(Cl)c3Cl)c(CCC#N)cc2c2c1cc([C@H]1C[C@H](OCc3ccn(C)n3)CN1C(=O)C1CC1)n2[C@H]1[C@H]2CN[C@@H]1C2 [Example 101] | ≤ 0.1 | ≤ 0.1
19 | Cc1nc2c(F)c(-c3cccc(Cl)c3Cl)c(CCC#N)cc2c2c1cc([C@H]1C[C@H](n3nnc(-c4ccccc4)n3)CN1C(=O)C1CC1)n2[C@H]1[C@H]2CN[C@@H]1C2 [Example 399] | ≤ 0.1 | ≤ 0.1
20 | Cc1nc2c(F)c(-c3cccc(Cl)c3Cl)c(CCC#N)cc2c2c1cc([C@H]1C[C@H](Oc3ccccc3OC(F)F)CN1C(=O)C1CC1)n2[C@H]1[C@H]2CN[C@@H]1C2 [Example 248] | ≤ 0.1 | ≤ 0.1
21 | Cc1nc2c(F)c(-c3cccc(Cl)c3Cl)c(CCC#N)cc2c2c1cc([C@H]1C[C@H](Oc3cccc(Cl)c3)CN1C(=O)C1CC1)n2[C@H]1[C@H]2CN[C@@H]1C2 [Example 161] | ≤ 0.1 | ≤ 0.1
22 | Cc1nc2c(F)c(-c3cccc(Cl)c3Cl)c(CCC#N)cc2c2c1cc([C@H]1C[C@H](n3nncc3Cc3ccccc3)CN1C(=O)C1CC1)n2[C@H]1[C@H]2CN[C@@H]1C2 [Example 160] | ≤ 0.1 | 0.1 to 1
23 | Cc1nc2c(F)c(-c3cccc(Cl)c3Cl)c(CCC#N)cc2c2c1cc([C@H]1C[C@H](n3cc(C#N)nn3)CN1C(=O)C1CC1)n2[C@H]1[C@H]2CN[C@@H]1C2 [Example 345] | ≤ 0.1 | ≤ 0.1
24 | Cc1nc2c(F)c(-c3cccc(Cl)c3Cl)c(CCC#N)cc2c2c1cc([C@H]1C[C@H](OC(C)c3ncco3)CN1C(=O)C1CC1)n2[C@H]1[C@H]2CN[C@@H]1C2 (some centres unmarked) [Example 228] | ≤ 0.1 | ≤ 0.1
25 | Cc1nc2c(F)c(-c3cccc(Cl)c3Cl)c(CCC#N)cc2c2c1cc([C@H]1C[C@H](OC3CCc4ccccc43)CN1C(=O)C1CC1)n2[C@H]1[C@H]2CN[C@@H]1C2 (some centres unmarked) [Example 337] | 0.1 to 1 | ≤ 0.1
26 | CCc1cccc(O[C@H]2C[C@H](c3cc4c(C)nc5c(F)c(-c6cccc(Cl)c6Cl)c(CCC#N)cc5c4n3[C@H]3[C@H]4CN[C@@H]3C4)N(C(=O)C3CC3)C2)c1 [Example 167] | ≤ 0.1 | ≤ 0.1
27 | CCOc1ncccc1O[C@H]1C[C@H](c2cc3c(C)nc4c(F)c(-c5cccc(Cl)c5Cl)c(CCC#N)cc4c3n2[C@H]2[C@H]3CN[C@@H]2C3)N(C(=O)C2CC2)C1 [Example 443] | ≤ 0.1 | ≤ 0.1
28 | Cc1nc2c(F)c(-c3cccc(Cl)c3Cl)c(CCC#N)cc2c2c1cc([C@H]1C[C@H](OCc3cc(C(F)(F)F)on3)CN1C(=O)C1CC1)n2[C@H]1[C@H]2CN[C@@H]1C2 [Example 361] | ≤ 0.1 | ≤ 0.1
29 | COc1cccc(CO[C@H]2C[C@H](c3cc4c(C)nc5c(F)c(-c6cccc(Cl)c6Cl)c(CCC#N)cc5c4n3[C@H]3[C@H]4CN[C@@H]3C4)N(C(=O)C3CC3)C2)c1F [Example 154] | ≤ 0.1 | ≤ 0.1
30 | Cc1csnc1CO[C@H]1C[C@H](c2cc3c(C)nc4c(F)c(-c5cccc(Cl)c5Cl)c(CCC#N)cc4c3n2[C@H]2[C@H]3CN[C@@H]2C3)N(C(=O)C2CC2)[C@@H]1C [Example 232] | ≤ 0.1 | ≤ 0.1
31 | Cc1cccc(C)c1CO[C@H]1C[C@H](c2cc3c(C)nc4c(F)c(-c5cccc(Cl)c5Cl)c(CCC#N)cc4c3n2[C@H]2[C@H]3CN[C@@H]2C3)N(C(=O)C2CC2)C1 [Example 113] | ≤ 0.1 | ≤ 0.1
32 | CC(=O)NC(C)(C)c1cn([C@H]2C[C@H](c3cc4c(C)nc5c(F)c(-c6cccc(Cl)c6Cl)c(CCC#N)cc5c4n3[C@H]3[C@H]4CN[C@@H]3C4)N(C(=O)C3CC3)C2)nn1 [Example 272] | ≤ 0.1 | ≤ 0.1
33 | CCOC(=O)c1cn([C@H]2C[C@H](c3cc4c(C)nc5c(F)c(-c6cccc(Cl)c6Cl)c(CCC#N)cc5c4n3[C@H]3[C@H]4CN[C@@H]3C4)N(C(=O)C3CC3)C2)nn1 [Example 394] | ≤ 0.1 | ≤ 0.1
34 | Cc1nc2c(F)c(-c3cccc(Cl)c3Cl)c(CCC#N)cc2c2c1cc([C@H]1C[C@H](OCc3cn(C4CC4)nn3)CN1C(=O)C1CC1)n2[C@H]1[C@H]2CN[C@@H]1C2 [Example 235] | ≤ 0.1 | ≤ 0.1
